{
  "source": "ChEMBL document CHEMBL1201862",
  "about": "“PubChem BioAssay data set” (2004)",
  "key": {"[1]": {"biological_target": "Peroxisome proliferator-activated receptor gamma/Nuclear receptor corepressor 2 (Homo sapiens, UniProt P37231+Q9Y618)", "format": "functional"}, "[2]": {"biological_target": "Peroxisome proliferator-activated receptor gamma/Nuclear receptor coactivator 1 (Homo sapiens, UniProt P37231)", "sequence (P37231 whole entry)": "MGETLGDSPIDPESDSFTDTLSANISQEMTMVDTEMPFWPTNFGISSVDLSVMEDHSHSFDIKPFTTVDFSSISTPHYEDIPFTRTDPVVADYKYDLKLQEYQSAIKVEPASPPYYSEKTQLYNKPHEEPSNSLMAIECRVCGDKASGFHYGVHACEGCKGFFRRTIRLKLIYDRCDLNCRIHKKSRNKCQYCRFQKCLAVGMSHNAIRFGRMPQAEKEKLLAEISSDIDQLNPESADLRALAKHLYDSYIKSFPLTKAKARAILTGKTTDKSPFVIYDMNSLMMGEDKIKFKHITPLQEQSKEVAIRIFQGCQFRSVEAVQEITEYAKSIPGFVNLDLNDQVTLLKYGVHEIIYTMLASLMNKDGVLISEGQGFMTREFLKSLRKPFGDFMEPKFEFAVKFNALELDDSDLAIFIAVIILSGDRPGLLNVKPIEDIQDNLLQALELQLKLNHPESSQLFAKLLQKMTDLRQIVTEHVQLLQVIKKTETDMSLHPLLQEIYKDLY", "sequence (Q15788 whole entry, further chain)": "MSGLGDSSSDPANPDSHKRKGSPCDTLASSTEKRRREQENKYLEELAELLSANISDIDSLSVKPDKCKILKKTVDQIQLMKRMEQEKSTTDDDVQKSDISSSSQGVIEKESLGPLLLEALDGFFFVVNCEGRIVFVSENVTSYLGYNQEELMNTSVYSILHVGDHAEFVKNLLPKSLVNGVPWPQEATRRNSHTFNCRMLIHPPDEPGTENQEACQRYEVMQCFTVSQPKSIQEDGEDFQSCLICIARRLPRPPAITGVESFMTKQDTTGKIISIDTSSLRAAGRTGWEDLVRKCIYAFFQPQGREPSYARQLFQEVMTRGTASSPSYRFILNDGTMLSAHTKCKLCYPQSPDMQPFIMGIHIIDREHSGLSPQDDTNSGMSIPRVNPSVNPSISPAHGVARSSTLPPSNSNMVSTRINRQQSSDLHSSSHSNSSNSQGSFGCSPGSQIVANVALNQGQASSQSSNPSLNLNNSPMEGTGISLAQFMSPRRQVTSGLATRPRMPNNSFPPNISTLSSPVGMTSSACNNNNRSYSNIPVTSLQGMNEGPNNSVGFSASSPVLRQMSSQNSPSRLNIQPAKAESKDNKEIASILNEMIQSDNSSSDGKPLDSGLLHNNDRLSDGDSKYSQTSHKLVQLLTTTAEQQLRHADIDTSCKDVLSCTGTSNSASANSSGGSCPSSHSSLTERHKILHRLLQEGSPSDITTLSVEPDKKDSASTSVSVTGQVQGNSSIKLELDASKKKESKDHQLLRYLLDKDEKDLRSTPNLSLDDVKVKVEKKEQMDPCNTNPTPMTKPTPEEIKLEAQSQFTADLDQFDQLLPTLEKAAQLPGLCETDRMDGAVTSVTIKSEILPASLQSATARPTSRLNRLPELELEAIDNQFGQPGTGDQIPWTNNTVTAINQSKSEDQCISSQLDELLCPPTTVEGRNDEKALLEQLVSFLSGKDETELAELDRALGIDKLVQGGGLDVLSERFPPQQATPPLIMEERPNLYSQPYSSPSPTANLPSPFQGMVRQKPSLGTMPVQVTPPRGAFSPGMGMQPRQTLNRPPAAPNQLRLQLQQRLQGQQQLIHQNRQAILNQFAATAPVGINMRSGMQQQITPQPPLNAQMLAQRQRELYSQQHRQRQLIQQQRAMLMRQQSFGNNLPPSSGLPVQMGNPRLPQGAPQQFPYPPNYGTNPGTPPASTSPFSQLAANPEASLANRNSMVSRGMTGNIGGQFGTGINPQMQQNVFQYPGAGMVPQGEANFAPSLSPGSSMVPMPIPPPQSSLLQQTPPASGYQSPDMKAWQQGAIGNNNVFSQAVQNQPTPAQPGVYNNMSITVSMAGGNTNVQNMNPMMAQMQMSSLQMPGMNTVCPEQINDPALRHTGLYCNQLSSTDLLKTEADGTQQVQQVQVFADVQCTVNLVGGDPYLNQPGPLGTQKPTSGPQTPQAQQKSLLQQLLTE", "test": "TR-FRET dose response biochemical High Throughput Screening assay for agonists of the steroid receptor coactivator 1 (SRC-1) recruitment by the peroxisome proliferator-activated receptor gamma (PPAR gamma): non-selective agonists. [Related pubchem assays (depositor defined):AID1300, AID1808, AID504735, AID631]", "format": "protein assay"}, "[3]": {"biological_target": "Peroxisome proliferator-activated receptor gamma/Nuclear receptor coactivator 2 (Homo sapiens, UniProt P37231)", "test": "(§1) TR-FRET dose response biochemical High Throughput Screening assay for agonists of the steroid receptor coactivator 2 (SRC-2) recruitment by the peroxisome proliferator-activated receptor gamma (PPAR gamma): non-selective agonists. [Related pubchem assays: 1297, 1032 ]", "format": "functional"}, "[4]": {"biological_target": "Photoreceptor-specific nuclear receptor (Homo sapiens, UniProt Q9Y5X4)", "format": "functional"}, "[5]": {"biological_target": "Peroxisome proliferator-activated receptor gamma/Nuclear receptor coactivator 3 (Homo sapiens, UniProt P37231)", "sequence (P37231 whole entry)": "as the sequence (P37231 whole entry) above", "sequence (Q9Y6Q9 whole entry, further chain)": "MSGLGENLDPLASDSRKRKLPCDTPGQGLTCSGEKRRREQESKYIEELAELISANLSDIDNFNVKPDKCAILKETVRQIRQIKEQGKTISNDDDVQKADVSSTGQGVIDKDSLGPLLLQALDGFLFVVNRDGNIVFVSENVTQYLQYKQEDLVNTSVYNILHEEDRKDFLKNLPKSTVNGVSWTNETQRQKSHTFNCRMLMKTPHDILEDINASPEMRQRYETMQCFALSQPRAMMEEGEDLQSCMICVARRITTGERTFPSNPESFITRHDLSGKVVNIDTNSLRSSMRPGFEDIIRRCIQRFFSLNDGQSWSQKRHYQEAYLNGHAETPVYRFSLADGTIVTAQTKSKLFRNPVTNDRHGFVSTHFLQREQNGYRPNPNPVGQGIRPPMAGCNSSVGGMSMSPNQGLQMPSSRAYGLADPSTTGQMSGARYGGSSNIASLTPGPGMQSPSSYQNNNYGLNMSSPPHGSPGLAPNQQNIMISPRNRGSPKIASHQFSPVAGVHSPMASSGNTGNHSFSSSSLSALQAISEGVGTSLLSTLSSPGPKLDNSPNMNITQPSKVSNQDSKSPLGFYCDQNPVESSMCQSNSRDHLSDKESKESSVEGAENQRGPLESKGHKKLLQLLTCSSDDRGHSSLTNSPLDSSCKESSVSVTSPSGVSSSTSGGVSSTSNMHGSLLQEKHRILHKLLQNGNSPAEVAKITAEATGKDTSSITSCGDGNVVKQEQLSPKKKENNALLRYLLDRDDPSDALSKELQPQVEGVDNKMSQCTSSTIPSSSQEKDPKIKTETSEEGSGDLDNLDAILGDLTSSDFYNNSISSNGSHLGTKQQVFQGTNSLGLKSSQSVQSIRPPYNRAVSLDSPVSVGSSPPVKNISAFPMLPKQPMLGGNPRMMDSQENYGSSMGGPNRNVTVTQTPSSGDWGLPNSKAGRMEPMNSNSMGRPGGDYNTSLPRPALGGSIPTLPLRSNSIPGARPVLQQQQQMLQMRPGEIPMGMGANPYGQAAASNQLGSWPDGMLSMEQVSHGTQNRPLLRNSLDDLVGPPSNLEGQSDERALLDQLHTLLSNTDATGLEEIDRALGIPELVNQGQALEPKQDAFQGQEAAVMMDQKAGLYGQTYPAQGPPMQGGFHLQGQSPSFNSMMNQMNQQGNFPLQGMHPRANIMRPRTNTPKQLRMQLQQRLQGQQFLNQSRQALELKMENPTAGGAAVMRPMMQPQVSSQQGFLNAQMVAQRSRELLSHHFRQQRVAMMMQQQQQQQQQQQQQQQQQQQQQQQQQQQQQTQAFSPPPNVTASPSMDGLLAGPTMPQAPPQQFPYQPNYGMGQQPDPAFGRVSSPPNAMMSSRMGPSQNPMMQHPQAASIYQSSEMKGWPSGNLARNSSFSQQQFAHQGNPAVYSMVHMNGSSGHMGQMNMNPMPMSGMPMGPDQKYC", "test": "as §1, with “3 (SRC-3)” for “2 (SRC-2)”, “1301 (Confirmation screen.), 1048 (Primary screen.)]” for “1297, 1032 ]”", "format": "functional"}, "fMet-Leu-Phe receptor": {"biological_target": "fMet-Leu-Phe receptor (Homo sapiens, UniProt P21462)", "sequence (P21462 whole entry)": "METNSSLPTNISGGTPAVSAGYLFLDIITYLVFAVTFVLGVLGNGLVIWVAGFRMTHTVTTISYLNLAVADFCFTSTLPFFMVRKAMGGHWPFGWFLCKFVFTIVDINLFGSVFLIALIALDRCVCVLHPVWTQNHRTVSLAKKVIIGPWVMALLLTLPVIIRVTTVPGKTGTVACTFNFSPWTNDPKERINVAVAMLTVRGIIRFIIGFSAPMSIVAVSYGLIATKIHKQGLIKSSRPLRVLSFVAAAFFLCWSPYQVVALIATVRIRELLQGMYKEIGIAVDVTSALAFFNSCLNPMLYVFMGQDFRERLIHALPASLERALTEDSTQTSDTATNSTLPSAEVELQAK", "test": "formyl peptide receptor binders – dose response (AID 519)", "format": "functional"}, "Streptococcus [6]": {"tested_on": "Streptococcus", "test": "Luminescence Microorganism-Based Dose Response Follow up to Identify Compounds Cytotoxic to Streptococcus. [Related pubchem assays: 1677 (Project Summary), 1915, 1914, 1902 (Retest at Dose), 1900 (Counter Screen), 1662 (Primary HTS)]", "format": "functional, organism-based"}, "Streptokinase A": {"biological_target": "T1, Streptokinase A (Streptococcus pyogenes serotype M1, UniProt P10520)", "T1 sequence (P10520 whole entry)": "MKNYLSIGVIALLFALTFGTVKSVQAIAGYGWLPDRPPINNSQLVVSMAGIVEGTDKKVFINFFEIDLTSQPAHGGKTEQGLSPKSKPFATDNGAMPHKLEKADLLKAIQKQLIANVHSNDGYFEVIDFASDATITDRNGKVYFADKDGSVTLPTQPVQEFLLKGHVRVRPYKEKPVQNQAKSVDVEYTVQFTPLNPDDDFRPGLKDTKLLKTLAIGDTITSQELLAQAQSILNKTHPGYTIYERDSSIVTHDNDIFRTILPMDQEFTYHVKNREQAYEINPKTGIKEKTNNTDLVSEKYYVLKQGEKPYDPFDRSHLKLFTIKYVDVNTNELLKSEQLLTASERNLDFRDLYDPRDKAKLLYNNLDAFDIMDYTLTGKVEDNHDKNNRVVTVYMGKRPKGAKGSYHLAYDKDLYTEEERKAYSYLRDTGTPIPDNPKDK", "test": "viability-normalized secreted streptokinase activity reduction – plasminogen activation absorbance, OD405, dose response (AID 1914)", "format": "functional, Streptococcus pyogenes M1 GAS"}, "Streptococcus [7]": {"tested_on": "Streptococcus", "test": "GAS UMAA2166 growth inhibition – luminescence, BacTiterGlo, counter-screen for streptokinase expression inhibitor project, dose response (AID 1915)", "format": "functional, organism-based"}, "[8]": {"tested_on": "Streptococcus sp. 'group A'", "test": "Streptococcus pyogenes SK(-)GAS viability under kanamycin – luminescence, BacTiterGlo, confirmation, counter-screen for streptokinase expression inhibitor project, dose response (AID 1900)", "format": "functional, organism-based"}, "Protein Rev": {"biological_target": "Protein Rev (Human immunodeficiency virus type 1 group M subtype B (isolate HXB2)(HIV-1), UniProt P04618)", "sequence (P04618 whole entry)": "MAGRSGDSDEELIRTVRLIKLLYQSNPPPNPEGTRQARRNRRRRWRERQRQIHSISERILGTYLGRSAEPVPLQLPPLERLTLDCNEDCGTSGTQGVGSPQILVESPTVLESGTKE", "test": "blockers of HIV Rev/RRE RNA complex – biochemical, fluorescence polarization, HIV-1, dose response (AID 434976)", "design": "species or system Human immunodeficiency virus 1"}, "[9]": {"biological_target": "Female germline-specific tumor suppressor gld-1 (Caenorhabditis elegans, UniProt Q17339)", "sequence (Q17339 whole entry)": "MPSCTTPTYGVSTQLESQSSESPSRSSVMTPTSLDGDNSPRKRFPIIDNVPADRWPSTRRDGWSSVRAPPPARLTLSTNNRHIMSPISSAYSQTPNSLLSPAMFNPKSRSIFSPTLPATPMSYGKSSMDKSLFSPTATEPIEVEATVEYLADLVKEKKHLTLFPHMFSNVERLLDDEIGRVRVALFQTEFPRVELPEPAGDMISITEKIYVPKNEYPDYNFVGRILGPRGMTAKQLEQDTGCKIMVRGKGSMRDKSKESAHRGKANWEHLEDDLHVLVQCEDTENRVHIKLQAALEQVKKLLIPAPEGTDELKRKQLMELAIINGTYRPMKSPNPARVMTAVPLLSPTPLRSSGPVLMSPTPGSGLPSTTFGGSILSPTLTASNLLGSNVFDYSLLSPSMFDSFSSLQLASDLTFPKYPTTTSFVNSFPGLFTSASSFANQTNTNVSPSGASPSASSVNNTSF", "test": "blockers of GLD-1/TGE RNA complex formation – biochemical, fluorescence polarization, C. elegans, dose response (AID 2802)"}, "[10]": {"biological_target": "Eukaryotic translation initiation factor 4E (Mus musculus, UniProt P63073)", "sequence (P63073 whole entry)": "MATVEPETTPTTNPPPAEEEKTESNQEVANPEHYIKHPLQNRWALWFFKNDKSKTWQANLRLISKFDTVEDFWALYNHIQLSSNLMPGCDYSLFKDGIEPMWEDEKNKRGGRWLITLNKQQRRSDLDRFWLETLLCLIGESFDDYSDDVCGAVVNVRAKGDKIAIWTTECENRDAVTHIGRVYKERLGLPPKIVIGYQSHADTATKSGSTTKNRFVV", "test": "blockers of eIF4G binding by eIF4E – biochemical, TR-FRET, dose response (AID 855)", "format": "functional"}, "[11]": {"biological_target": "T2, Short transient receptor potential channel 4 (Mus musculus, UniProt Q9QUQ5)", "T2 sequence (Q9QUQ5 whole entry)": "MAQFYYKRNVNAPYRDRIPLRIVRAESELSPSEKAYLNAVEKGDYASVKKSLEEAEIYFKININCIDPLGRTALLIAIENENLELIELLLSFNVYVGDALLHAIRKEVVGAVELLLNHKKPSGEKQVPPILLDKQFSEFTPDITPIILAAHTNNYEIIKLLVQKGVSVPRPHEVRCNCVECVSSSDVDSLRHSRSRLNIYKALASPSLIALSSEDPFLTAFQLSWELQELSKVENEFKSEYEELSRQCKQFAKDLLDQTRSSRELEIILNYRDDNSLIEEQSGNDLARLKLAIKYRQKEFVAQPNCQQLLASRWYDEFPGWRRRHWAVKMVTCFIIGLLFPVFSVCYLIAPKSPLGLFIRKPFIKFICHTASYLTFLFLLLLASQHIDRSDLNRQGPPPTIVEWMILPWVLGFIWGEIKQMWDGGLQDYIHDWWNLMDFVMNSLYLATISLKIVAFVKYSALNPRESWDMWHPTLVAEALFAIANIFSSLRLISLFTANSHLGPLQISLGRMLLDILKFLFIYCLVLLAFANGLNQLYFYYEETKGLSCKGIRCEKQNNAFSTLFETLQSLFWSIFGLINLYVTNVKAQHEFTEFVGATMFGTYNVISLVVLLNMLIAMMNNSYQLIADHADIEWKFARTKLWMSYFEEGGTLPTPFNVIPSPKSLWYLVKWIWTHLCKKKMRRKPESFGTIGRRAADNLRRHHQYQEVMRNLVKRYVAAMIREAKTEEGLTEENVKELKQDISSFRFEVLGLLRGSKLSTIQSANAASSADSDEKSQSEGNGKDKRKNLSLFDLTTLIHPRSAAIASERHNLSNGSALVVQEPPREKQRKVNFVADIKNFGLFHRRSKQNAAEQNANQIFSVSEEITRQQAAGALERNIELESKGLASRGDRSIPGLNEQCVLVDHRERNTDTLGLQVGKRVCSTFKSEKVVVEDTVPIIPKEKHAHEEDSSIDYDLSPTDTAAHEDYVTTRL", "test": "block of DAMGO-driven TRPC4 calcium entry – cell-based, HEK293 TRPC4/mu-opioid, Fluo-4 calcium, dose response (AID 434942)", "format": "functional"}, "HEK293": {"tested_on": "HEK293", "test": "Fluorescence-based counterscreen for potentiators or agonists of NPY-Y2: cell-based high-throughput dose response assay to identify inhibitors of cyclic nucleotide gated ion channel (CNGC) activity. In this assay, the parental HEK293 cell line transfected with a cyclic-nucleotide gated ion channel (CNGC)-based cAMP sensor is used to measure inhibition of isoproterenol-induced CNGC activity by test compound.", "format": "functional", "details": "Homo sapiens"}, "[12]": {"biological_target": "T3, Neuropeptide Y receptor type 1 (Homo sapiens, UniProt P25929)", "T3 sequence (P25929 whole entry)": "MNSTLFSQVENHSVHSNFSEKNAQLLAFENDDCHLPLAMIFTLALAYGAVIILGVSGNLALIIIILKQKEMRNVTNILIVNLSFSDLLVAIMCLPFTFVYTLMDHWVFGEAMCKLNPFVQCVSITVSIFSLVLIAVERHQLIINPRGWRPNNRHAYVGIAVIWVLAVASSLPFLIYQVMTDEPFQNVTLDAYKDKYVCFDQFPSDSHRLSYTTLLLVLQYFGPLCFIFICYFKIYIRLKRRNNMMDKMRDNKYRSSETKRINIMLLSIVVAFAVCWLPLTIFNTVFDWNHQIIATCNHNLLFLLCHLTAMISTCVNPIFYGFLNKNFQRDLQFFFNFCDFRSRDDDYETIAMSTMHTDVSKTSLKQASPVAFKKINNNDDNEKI", "test": "Fluorescence-based counterscreen for agonists of NPY-Y2: cell-based high-throughput dose response assay for agonists of NPY-Y1.", "format": "functional"}, "[13]": {"biological_target": "T4, Neuropeptide Y receptor type 2 (Homo sapiens, UniProt P49146)", "T4 sequence (P49146 whole entry)": "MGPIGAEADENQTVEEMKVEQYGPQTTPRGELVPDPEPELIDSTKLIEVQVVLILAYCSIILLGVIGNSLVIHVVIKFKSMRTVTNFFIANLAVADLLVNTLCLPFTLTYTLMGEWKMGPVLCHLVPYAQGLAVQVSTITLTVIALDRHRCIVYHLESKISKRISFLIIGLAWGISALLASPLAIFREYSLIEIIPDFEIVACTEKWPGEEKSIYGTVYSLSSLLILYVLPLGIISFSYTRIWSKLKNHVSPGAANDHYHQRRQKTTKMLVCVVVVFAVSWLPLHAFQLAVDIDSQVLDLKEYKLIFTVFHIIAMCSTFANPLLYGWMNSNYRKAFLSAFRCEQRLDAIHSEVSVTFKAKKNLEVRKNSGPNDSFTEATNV", "test": "Fluorescence-based cell-based high-throughput dose response assay for agonists of NPY-Y2. [Related pubchem assays: 1703 (Screening assay (CNGC inhibitors).), 1359 (Screening assay (NPY-Y2 potentiators or agonists).), 1304 (Screening assay (NPY-Y1 potentiators or agonists).), 1710 (Screening assay (NPY-Y2 agonists).), 1791 (Summary AID.)]", "format": "functional"}, "X-box-binding protein 1": {"biological_target": "X-box-binding protein 1 (Homo sapiens, UniProt P17861)", "format": "functional, Cricetulus griseus"}, "HeLa": {"tested_on": "HeLa", "test": "viability loss in HeLa cells – cell-based, 24 h, cherry-picked samples, cytotoxicity control, dose response (AID 504726)", "format": "functional", "details": "Homo sapiens"}},
  "note": "Activity calls are given as the source filed them.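 Wherever AC50 is given: potency for cytotoxicity as loss of luminescence signal.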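 Wherever Absolute IC50 (XBP1) is given: confirmatory dose-response counter-screen serving a CHOP assay.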",
  "data": [
    {"smiles": "COc1cccc2cc(C(=O)C3=C(O)C(=O)N(Cc4ccco4)C3c3cccnc3)oc12", "note": "(centres undefined)", "values": [
      {"measurement": "IC50", "setting": "[1]", "value": "2.79 µM (active)"},
      {"measurement": "EC50", "setting": "[2]", "value": "> 79.4 µM (inactive)"},
      {"measurement": "EC50", "setting": "[3]", "value": "> 79.4 µM (not active)"},
      {"measurement": "IC50", "setting": "[4]", "value": "> 39.8 µM (not active)"},
      {"measurement": "EC50", "setting": "[5]", "value": "> 79.4 µM (not active)"},
      {"measurement": "Ki", "setting": "fMet-Leu-Phe receptor", "value": "> 66.7 µM (inactive)"}
    ]},
    {"smiles": "CC1CCN(C(=O)N2c3ccccc3Sc3ccccc32)CC1", "values": [
      {"measurement": "EC50", "setting": "Streptococcus [6]", "value": "> 500 µM (not active)"},
      {"measurement": "EC50", "setting": "Streptokinase A", "value": "> 150 µM (not active)"},
      {"measurement": "EC50", "setting": "Streptococcus [7]", "value": "28.5 µM (active)"},
      {"measurement": "EC50", "setting": "[8]", "value": "13.8 µM (active)"}
    ]},
    {"smiles": "C=CCNC(=O)/C(C#N)=C/c1ccccc1[N+](=O)[O-]", "values": [
      {"measurement": "IC50", "setting": "Protein Rev", "value": "10.4 µM (not active)"},
      {"measurement": "IC50", "setting": "[9]", "value": "1.1 µM (active)"}
    ]},
    {"smiles": "Cc1cccc(N2CCc3c2nc2ccccc2c3N)c1", "values": [
      {"measurement": "IC50", "setting": "[10]", "value": "> 64 µM (inactive)"},
      {"measurement": "EC50", "setting": "[11]", "value": "1.06 µM (active)"},
      {"measurement": "EC50", "setting": "HEK293", "value": "9.3 µM (active)"},
      {"measurement": "EC50", "setting": "[12]", "value": "3.07 µM (active)"},
      {"measurement": "EC50", "setting": "[13]", "value": "3.43 µM (active)"}
    ]},
    {"smiles": "CCCCCCn1c(SCCC)nc2c1c(=O)[nH]c(=O)n2C", "values": [
      {"measurement": "Absolute IC50 (XBP1)", "setting": "X-box-binding protein 1", "value": 10, "unit": "µM"}
    ]},
    {"smiles": "CCN(CCCNC(=O)Cn1cc2c(n1)CCCC2)c1cccc(C)c1", "values": [
      {"measurement": "AC50", "setting": "HeLa", "value": "> 350 µM (inactive)"}
    ]}
  ]
}
